A short description of this data set: Tail vein toxicity. The conditions noted are these: male ICR mice, IV lateral tail vein, 20 mg/kg at 0, 24, 48 and 72 hours, monitored 7 days; in comparison to pseudomycin B. In kind it is in vivo. Here is the method:
Mice were treated intravenously (IV) through the lateral tail vein with 0.1 ml of testing compound (20 mg/kg) at 0, 24, 48 and 72 hours. Two mice were included in each group. Compounds were formulated in 5.0% dextrose and sterile water for injection. The mice were monitored for 7 days following the first treatment and observed closely for signs of irritation including erythema, swelling, discoloration, necrosis, tail loss and any other signs of adverse effects indicating toxicity.
The mice used in the study were outbred, male ICR mice having an average weight between 18-20 g (available from Harlan Sprangue Dawley, Indianapolis, Ind.

These results are taken from patent publication US20030008814A1, “Pseudomycin phosphate prodrugs” (priority 2002, published 2003).

Turning to `C/C=C1\NC(=O)[C@H]([C@H](C)O)NC(=O)[C@H](CCNC(=O)OCc2ccc(OP(=O)(OCc3ccccc3)OCc3ccccc3)cc2)NC(=O)[C@H](CCCCNC(=O)OCc2ccc(OP(=O)(OCc3ccccc3)OCc3ccccc3)cc2)NC(=O)[C@H](CC(=O)O)NC(=O)[C@@H](CCNC(=O)OCc2ccc(OP(=O)(OCc3ccccc3)OCc3ccccc3)cc2)NC(=O)[C@@H](NC(=O)CC(O)CCCCCCCCCCC)COC(=O)[C@H]([C@H](O)CCl)NC(=O)[C@H](C(O)C(=O)O)NC1=O` (stereo partly shown) [Compound 1A-1], the tail vein toxicity entry was “improvement in tail vein toxicity”.
